Results published in ChEMBL document CHEMBL1149122 (J Med Chem, 2004).

Tests used:
[1] = molecular target: T1, Amine oxidase [flavin-containing] B (Homo sapiens, UniProt P27338); assay: Binding affinity towards monoamine oxidase B activity was measured using a benzylamine assay
T1 sequence (P27338 whole entry): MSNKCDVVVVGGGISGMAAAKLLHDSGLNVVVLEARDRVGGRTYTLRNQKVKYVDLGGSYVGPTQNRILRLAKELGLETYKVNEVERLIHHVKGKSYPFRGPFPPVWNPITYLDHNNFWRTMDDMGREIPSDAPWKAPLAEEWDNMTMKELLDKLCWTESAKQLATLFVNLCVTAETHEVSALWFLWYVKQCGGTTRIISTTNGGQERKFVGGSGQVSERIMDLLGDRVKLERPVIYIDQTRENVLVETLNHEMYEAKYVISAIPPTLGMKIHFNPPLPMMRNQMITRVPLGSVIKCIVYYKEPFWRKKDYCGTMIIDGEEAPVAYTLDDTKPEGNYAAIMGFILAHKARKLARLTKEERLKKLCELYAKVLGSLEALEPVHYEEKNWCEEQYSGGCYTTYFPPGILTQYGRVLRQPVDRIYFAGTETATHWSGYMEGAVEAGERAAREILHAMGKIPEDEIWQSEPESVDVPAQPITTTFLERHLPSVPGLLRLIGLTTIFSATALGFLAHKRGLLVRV

[2] = molecular target: T2, Amine oxidase [flavin-containing] A (Homo sapiens, UniProt P21397); assay: Binding affinity towards monoamine oxidase A activity was measured using a kynuramine assay
T2 sequence (P21397 whole entry): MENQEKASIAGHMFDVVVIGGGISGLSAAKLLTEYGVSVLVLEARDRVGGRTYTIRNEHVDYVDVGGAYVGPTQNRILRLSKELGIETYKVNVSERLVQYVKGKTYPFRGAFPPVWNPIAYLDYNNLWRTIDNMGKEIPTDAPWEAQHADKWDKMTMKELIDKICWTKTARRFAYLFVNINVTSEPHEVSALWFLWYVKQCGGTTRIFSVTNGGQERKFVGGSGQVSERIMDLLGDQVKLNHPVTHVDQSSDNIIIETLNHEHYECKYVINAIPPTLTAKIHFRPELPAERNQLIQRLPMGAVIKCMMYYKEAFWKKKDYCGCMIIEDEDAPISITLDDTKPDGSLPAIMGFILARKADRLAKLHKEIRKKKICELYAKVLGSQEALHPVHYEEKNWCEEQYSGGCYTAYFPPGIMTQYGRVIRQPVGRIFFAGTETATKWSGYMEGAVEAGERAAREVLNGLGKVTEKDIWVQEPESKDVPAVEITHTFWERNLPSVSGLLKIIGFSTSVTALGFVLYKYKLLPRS

[3] = molecular target: T3, Amine oxidase [flavin-containing] A (Rattus norvegicus, UniProt P21396); assay: Inhibitory concentration towards monoamine oxidase A in rat brain was measured; format: tissue-based
T3 sequence (P21396 whole entry): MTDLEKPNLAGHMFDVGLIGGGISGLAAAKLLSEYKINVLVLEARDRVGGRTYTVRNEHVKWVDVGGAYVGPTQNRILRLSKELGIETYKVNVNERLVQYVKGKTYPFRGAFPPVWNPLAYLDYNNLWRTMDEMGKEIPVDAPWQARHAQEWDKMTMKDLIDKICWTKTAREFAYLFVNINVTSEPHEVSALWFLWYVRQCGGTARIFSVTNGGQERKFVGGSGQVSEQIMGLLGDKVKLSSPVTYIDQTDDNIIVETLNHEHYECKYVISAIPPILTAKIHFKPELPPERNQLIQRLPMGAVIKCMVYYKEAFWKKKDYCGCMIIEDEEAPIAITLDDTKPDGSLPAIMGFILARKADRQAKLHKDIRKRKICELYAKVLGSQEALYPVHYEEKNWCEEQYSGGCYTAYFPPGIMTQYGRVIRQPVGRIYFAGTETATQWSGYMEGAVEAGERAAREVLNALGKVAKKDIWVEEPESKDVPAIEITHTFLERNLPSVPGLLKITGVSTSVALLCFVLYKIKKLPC

[4] = molecular target: T4, Amine oxidase [flavin-containing] B (Rattus norvegicus, UniProt P19643); assay: Inhibitory concentration towards monoamine oxidase B in rat brain was measured; format: tissue-based
T4 sequence (P19643 whole entry): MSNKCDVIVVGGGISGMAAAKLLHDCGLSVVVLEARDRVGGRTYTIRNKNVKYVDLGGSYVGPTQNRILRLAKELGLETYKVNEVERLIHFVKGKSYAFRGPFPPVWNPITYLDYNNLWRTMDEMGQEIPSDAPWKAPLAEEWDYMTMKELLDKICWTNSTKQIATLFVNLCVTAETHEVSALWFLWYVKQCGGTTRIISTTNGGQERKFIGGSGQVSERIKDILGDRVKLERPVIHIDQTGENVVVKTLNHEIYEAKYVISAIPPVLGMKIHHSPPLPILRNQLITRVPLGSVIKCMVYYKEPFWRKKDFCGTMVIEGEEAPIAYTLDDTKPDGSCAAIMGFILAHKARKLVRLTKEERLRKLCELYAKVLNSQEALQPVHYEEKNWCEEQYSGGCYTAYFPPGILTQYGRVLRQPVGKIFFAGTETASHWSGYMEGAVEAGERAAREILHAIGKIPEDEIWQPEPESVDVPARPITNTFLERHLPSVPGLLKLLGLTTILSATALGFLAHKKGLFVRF

SMILES | Ki [1] [µM] | Ki [2] [µM] | IC50 [3] [µM] | IC50 [4] [µM]
C#CCN(C)[C@@H]1CCc2ccccc21 | 0.6 | 4.9 | – | –
C#CCN[C@@H]1CCc2ccc(OC(=O)N(C)CC)cc21 [LADOSTIGIL] | 213 | 227 | 85 | 120
C#CCN[C@@H]1CCc2ccc(O)cc21 | 17 | 1.9 | – | –
